From publication PMC5867622, “Microginins from a Microcystis sp. Bloom Material Collected from the Kishon Reservoir, Israel” (Marine Drugs, 2018)
Where two headings read alike, the source gives them in different places. Each block holds one compound with its values, some of them ahead of it. Square brackets hold non-standard residues; d marks the D form. Peptide text beside a SMILES is read from it. * marks the point of attachment. X13 = CN[C@H](CCCCCCC(Cl)Cl)[C@@H](O)C(=O)*; X4 = CN[C@H](CCCCCCCCl)[C@@H](O)C(=O)*; X7 = N[C@H](CCCCCCCCl)[C@@H](O)C(=O)*; NMeY = CN[C@@H](Cc1ccc(O)cc1)C(=O)O; X17 = CCCCC[C@H](N)[C@H](O)C(=O)*; NMeI = CC[CH](C)[CH](NC)C(=O)O; NMeL = CN[CH](CC(C)C)C(=O)O; X11 = CCCCCCCC(NC)C(O)C(=O)*; X5 = NC(CCCCCCCCl)C(O)C(=O)*; X16 = CCCCCC(NC)C(O)C(=O)*; X8 = CCCCCCCC(N)C(O)C(=O)*

Key:
[1] = test system: APN; conditions: Table S1, cited from earlier work
[2] = target: T1, porcine kidney microsomal aminopeptidase M (Sus scrofa, UniProt P15145); experiment: Aminopeptidase M inhibitory assay; type: biochemical
T1 construct: purchased Sigma-Aldrich (St. Louis, MO, USA); host or cells: porcine kidney microsomes
T1 sequence (P15145 1-963): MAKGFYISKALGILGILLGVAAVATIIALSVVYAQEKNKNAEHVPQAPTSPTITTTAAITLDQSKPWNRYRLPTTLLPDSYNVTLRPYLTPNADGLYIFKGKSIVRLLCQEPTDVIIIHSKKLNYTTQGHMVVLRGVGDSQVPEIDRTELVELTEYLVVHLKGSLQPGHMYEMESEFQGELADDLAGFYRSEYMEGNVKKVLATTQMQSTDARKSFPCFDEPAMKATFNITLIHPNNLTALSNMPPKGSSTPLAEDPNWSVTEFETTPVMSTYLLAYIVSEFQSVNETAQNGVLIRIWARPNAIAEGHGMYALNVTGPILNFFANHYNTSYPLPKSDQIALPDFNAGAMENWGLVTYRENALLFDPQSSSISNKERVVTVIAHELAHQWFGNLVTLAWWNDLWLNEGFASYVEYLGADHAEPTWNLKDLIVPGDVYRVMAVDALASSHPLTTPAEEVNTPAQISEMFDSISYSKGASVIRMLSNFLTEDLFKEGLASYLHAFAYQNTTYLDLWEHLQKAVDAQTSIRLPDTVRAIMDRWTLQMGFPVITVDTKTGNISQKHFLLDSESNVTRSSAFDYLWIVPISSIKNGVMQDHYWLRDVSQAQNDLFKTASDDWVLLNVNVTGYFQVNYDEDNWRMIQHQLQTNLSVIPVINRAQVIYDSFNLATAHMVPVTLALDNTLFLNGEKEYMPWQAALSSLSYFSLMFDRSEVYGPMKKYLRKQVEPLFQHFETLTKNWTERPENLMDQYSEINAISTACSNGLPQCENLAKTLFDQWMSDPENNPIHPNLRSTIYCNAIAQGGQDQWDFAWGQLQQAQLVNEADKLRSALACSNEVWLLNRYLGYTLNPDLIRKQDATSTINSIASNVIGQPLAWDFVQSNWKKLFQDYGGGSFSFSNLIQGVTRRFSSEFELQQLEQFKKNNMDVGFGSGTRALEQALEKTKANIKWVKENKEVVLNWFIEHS
Experimental: Aminopeptidase M inhibitory activity was determined according to the procedure described by Ishida et al.. A reaction mixture composed of 20 μL of L-leucine-p-nitroanilide (2 mM in 0.1 M Tris-HCl buffer at pH 7.0), 50 μL of 0.1 M Tris-HCl buffer (pH 7.0) and 20 μL of test solution was added to each well of a 96-well microtiter plate. The plate was incubated at 37 °C for 5 min; thereafter, 10 μL of porcine kidney microsomal aminopeptidase M [EC Number 232-942-5, Sigma-Aldrich (St. Louis, MO, USA), […] in 3.5 M (NH4)2SO4] was added to each well, and the absorbance at 405 nm was measured for 30 min. The microginin samples were dissolved in DMSO at a concentration of 1 mg/mL, and the IC50 values were determined by analysis of a series of dilutions (from 45.5 μM to 0.00069 μM). A sigmoidal curve of the enzyme inhibition versus the concentration of the inhibitor was observed that was fit to a 4-parameter logistic model.

[3] = test system: cAPM; design: method as in earlier work; conditions: Table S1; ref 3 (Neumann et al., FEMS Microbiol. Lett. 1997); cited from earlier work
[4] = test system: ACE; conditions: Table S1; ref 3 (Neumann et al., FEMS Microbiol. Lett. 1997); cited from earlier work
[5] = test system: mAPM; design: method as in earlier work; conditions: Table S1; ref 3 (Neumann et al., FEMS Microbiol. Lett. 1997); cited from earlier work
[6] = Activity: APM, Table S1, source 14 = this manuscript
[7] = IC50 in μM ± SD, Table 4, substrate L-leucine-p-nitroanilide, Tris-HCl pH 7.0, 37 °C
[8] = read-out: Activity: APM, Table S1, source 14 = this manuscript
[9] = read-out: IC50 in μM ± SD, Table 4, substrate L-leucine-p-nitroanilide, Tris-HCl pH 7.0, 37 °C
[10] = Table 4, substrate L-leucine-p-nitroanilide, Tris-HCl pH 7.0, 37 °C, read-out: IC50 in μM ± SD
[11] = Table S1, source 14 = this manuscript, heading: Activity: APM, read-out: Activity: APM

Compound: CC(C)[C@@H](C(=O)N[C@@H](Cc1ccc(O)cc1)C(=O)O)N(C)C(=O)[C@H](C)NC(=O)[C@@H](O)[C@@H](N)CCCCCCCCl [Microginin AL584]
- Activity: APN (ni) ([1]; ref 10 (Gesner-Apter, Carmeli, Tetrahedron 2008)): ni

Compound: CCCCCCCC(N)C(O)C(=O)NC(C(=O)N1CCCC1C(=O)NC(Cc1ccc(O)cc1)C(=O)NC(Cc1ccc(O)cc1)C(=O)O)C(C)O (stereo not shown) [Microginin FR3] (X8-TPYY-OH; configuration not given here)
- IC50 [2, 6]: 0.0062 µM
- IC50 [2, 7]: 6.2 ± 0.03 µM

Compound: CCCCCCCC(NC)C(O)C(=O)NC(C(=O)N1CCCC1C(=O)NC(Cc1ccc(O)cc1)C(=O)NC(Cc1ccc(O)cc1)C(=O)O)C(C)O (stereo not shown) [Microginin FR4] (X11-TPYY-OH; configuration not given here)
- IC50 [2, 8]: 0.0018 µM
- IC50 [2, 9]: 1.8 ± 0.04 µM

Compound: CCC(C)C(C(=O)N1CCCC1C(=O)NC(Cc1ccc(O)cc1)C(=O)O)N(C)C(=O)C(Cc1ccc(O)cc1)NC(=O)C(O)C(N)CCCCCCCCl (stereo not shown) [Microginin HG787] (X5-Y[NMeI]PY-OH; configuration not given here)
- IC50 ([1]; ref 11 (Lifshits et al., Tetrahedron 2011)): 7.7 µM

- IC50 [2, 10]: 7.5 ± 0.1 µM
- IC50 [2, 11]: 7.5 µM
Compound: CCCCCCC[C@@H](NC)[C@@H](O)C(=O)N[C@@H](Cc1ccc(O)cc1)C(=O)N(C)[C@@H](CC(C)C)C(=O)N1CCC[C@H]1C(=O)O [Microginin KR604]

- IC50 [2, 10]: 3.8 ± 0.3 µM
- IC50 [2, 11]: 3.8 µM
Compound: CN[C@H](CCCCCCCCl)[C@@H](O)C(=O)N[C@@H](Cc1ccc(O)cc1)C(=O)N(C)[C@@H](CC(C)C)C(=O)N1CCC[C@H]1C(=O)O [Microginin KR638]

Compound: CCCCCCCC(NC)C(O)C(=O)NC(Cc1ccc(O)cc1)C(=O)N(C)C(CC(C)C)C(=O)N1CCCC1C(=O)NC(Cc1ccc(O)cc1)C(=O)O (stereo not shown) [Microginin KR767] (X11-Y[NMeL]PY-OH; configuration not given here)
- IC50 [2, 8]: 0.0005 µM
- IC50 [2, 9]: 0.5 ± 0.2 µM

Compound: CC(C)C[C@@H](C(=O)N1CCC[C@H]1C(=O)N[C@@H](Cc1ccc(O)cc1)C(=O)O)N(C)C(=O)[C@H](Cc1ccc(O)cc1)NC(=O)[C@H](O)[C@H](N)CCCCCCCCl [Microginin KR787] (X7-Y[NMeL]PY-OH)
- IC50 [2, 8]: 0.0057 µM
- IC50 [2, 9]: 5.7 ± 0.1 µM

Compound: CN[C@H](CCCCCCCCl)[C@@H](O)C(=O)N[C@@H](Cc1ccc(O)cc1)C(=O)N(C)[C@@H](CC(C)C)C(=O)N1CCC[C@H]1C(=O)N[C@@H](Cc1ccc(O)cc1)C(=O)O [Microginin KR801] (X4-Y[NMeL]PY-OH)
- IC50 [2, 8]: 0.0001 µM
- IC50 [2, 9]: 0.1 ± 0.2 µM

Compound: CN[C@H](CCCCCCCCl)[C@@H](O)C(=O)N[C@@H](Cc1ccc(O)cc1)C(=O)N(C)[C@@H](CC(C)C)C(=O)N1CCC[C@H]1C(=O)N[C@@H](Cc1ccc(O)cc1)C(=O)OC [Microginin KR815] (X4-Y[NMeL]PY-OMe)
- IC50 [2, 6]: 0.072 µM
- IC50 [2, 7]: 72 ± 0.1 µM

Compound: CN[C@H](CCCCCCC(Cl)Cl)[C@@H](O)C(=O)N[C@@H](Cc1ccc(O)cc1)C(=O)N(C)[C@@H](CC(C)C)C(=O)N1CCC[C@H]1C(=O)N[C@@H](Cc1ccc(O)cc1)C(=O)O [Microginin KR835] (X13-Y[NMeL]PY-OH)
- IC50 [2, 8]: 0.0004 µM
- IC50 [2, 9]: 0.4 ± 0.2 µM

Compound: CCCCCC(NC)C(O)C(=O)N[C@H](C(=O)N(C)[C@H](C(=O)N(C)[C@@H](Cc1ccc(O)cc1)C(=O)N[C@@H](Cc1ccc(O)cc1)C(=O)O)[C@@H](C)CC)C(C)C (stereo partly shown) [Microginin SD755] (X16-V[NMeI][NMeY]Y-OH)
- IC50 ([1]; ref 7 (Resef, Carmeli, Tetrahedron 2001)): 18.5 µM

Compound: CCCCC[C@H](N)[C@H](O)C(=O)N[C@H](C(=O)N(C)[C@H](C(=O)N(C)[C@@H](Cc1ccc(O)cc1)C(=O)N[C@@H](Cc1ccc(O)cc1)C(=O)O)[C@@H](C)CC)C(C)C [Nostoginin BN741] (X17-V[NMeI][NMeY]Y-OH)
- IC50 ([1]; ref 8 (Ploutno, Carmeli, Tetrahedron 2002)): 1.3 µM

Compound: Microginin FR1
- IC50 [3]: 1.3 µM
- IC50 [4]: 16 µM
- IC50 [5]: 0.006 µM
